Measurements as given in patent publication US11311503B1, “Sterile aqueous choline salt compositions” (Protara Therapeutics, Inc., priority 2021, dated 2022).
Read-outs that look alike come from different tables or passages of the source.

Key:
[1] = three months post production
[2] = three months post production; remark: listed apart in the source
[3] = Acid 1: 1 N HCl, about 72 hours
[4] = Acid 2: 0.1 N HCl, about 72 hours
[5] = Base 1: 1 N NaOH, about 72 hours
[6] = Base 2: 0.1 N NaOH, about 72 hours
[7] = Heat (dry): 80°, about 72 hours
[8] = Heat (wet): 80°, about 72 hours
[9] = Oxidation: 5% H2O2, about 24 hours
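Throughout, for % Impurities RRT 1.42/1.44: Stress-treated samples analysed together with a control by the test method, run time lengthened to catch possible late-eluting degradation peaks.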
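Throughout, for % Total Impurities: Stress-treated samples analysed together with a control by the test method, run time lengthened to catch possible late-eluting degradation peaks.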
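Throughout, for Assay % Relative to control: Stress-treated samples analysed together with a control by the test method, run time lengthened to catch possible late-eluting degradation peaks.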
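Throughout, for Mass Balance % Relative to Control: Stress-treated samples analysed together with a control by the test method, run time lengthened to catch possible late-eluting degradation peaks.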

Compound: C[N+](C)(C)CCO.[Cl-] [Choline chloride]
- % Impurities RRT 1.42/1.44 [3]: 0.14%
- % Total Impurities [3]: 0.14%
- Assay % Relative to control [3]: 100.4%
- Mass Balance % Relative to Control [3]: 100.5%
- Mass Balance Assay + Impurities [3]: 99.24
- Assay % LC (Acid 1: 1 N HCl, about 72 hours, ambient): 99.1 % LC
- Assay % Relative to control [4]: 100.2%
- Mass Balance % Relative to Control [4]: 100.2%
- Mass Balance Assay + Impurities [4]: 98.9
- Assay % LC (Acid 2: 0.1 N HCl, about 72 hours, ambient): 98.9 % LC
- % Impurities RRT 1.42/1.44 [5]: 0.14%
- % Total Impurities [5]: 0.14%
- Assay % Relative to control [5]: 100.6%
- Mass Balance % Relative to Control [5]: 100.7%
- Mass Balance Assay + Impurities [5]: 99.44
- Assay % LC (Base 1: 1 N NaOH, about 72 hours, ambient): 99.3 % LC
- Assay % Relative to control [6]: 102.1%
- Mass Balance % Relative to Control [6]: 102.1%
- Mass Balance Assay + Impurities [6]: 100.8
- Assay % LC (Base 2: 0.1 N NaOH, about 72 hours, ambient): 100.8 % LC
- Assay % LC (Control: No treatment): 98.7 % LC
- Mass Balance Assay + Impurities (Control: No treatment): 98.7
- Assay % LC (Heat (dry): 80° for about 72 hours): 99.2 % LC
- Assay % Relative to control [7]: 100.5%
- Mass Balance % Relative to Control [7]: 100.5%
- Mass Balance Assay + Impurities [7]: 99.2
- Assay % Relative to control [8]: 100.7%
- Mass Balance % Relative to Control [8]: 100.7%
- Mass Balance Assay + Impurities [8]: 99.4
- Assay % LC (Heat (wet): in the presence of water, 80° for about 72 hours): 99.4 % LC
- Assay % LC (Light (dry): about 7.2 kilolux Visible and 1 W/m^2 UV, about 120 hours): 99.7 % LC
- Assay % Relative to control (Light (dry): about 120 hours): 101.0%
- Mass Balance % Relative to Control (Light (dry): about 120 hours): 101.0%
- Mass Balance Assay + Impurities (Light (dry): about 120 hours): 99.7
- Assay % Relative to control (Light (wet): about 120 hours): 100.2%
- Mass Balance % Relative to Control (Light (wet): about 120 hours): 100.2%
- Mass Balance Assay + Impurities (Light (wet): about 120 hours): 98.9
- Assay % LC (Light (wet): in the presence of water, about 7.2 kilolux Visible and 1 W/m^2 UV, about 120 hours): 98.9 % LC
- % Total Impurities [9]: 0.55%
- Assay % Relative to control [9]: 100.7%
- Mass Balance % Relative to Control [9]: 101.3%
- Mass Balance Assay + Impurities [9]: 99.95
- Assay % LC (Oxidation: 5% H2O2, about 24 hours, ambient): 99.4 % LC
- stability / degradation at all stressed conditions (acid, base, oxidation, light, heat, maximum stress conditions): no significant degradation
- pH (1 in 10 solution) [1]: 5.9
- Bacterial Endotoxins [2]: <0.1 EU/mg
